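Values below derive from 48-hour exposures of cells grown in 96-well plates, with endpoints linearly interpolated between the two concentrations bracketing the appropriate inhibition level. At the GI50, growth is halved. At the TGI there is no net growth.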
Legend:
Assay in all cases: inhibition of tumour cell growth, NCI panel, 48 h
[1] = system: NCI-H460 lung
[2] = system: NCI-H522 lung
[3] = system: NCI/ADR-RES ovarian
[4] = system: OVCAR-3 ovarian
[5] = system: OVCAR-4 ovarian
[6] = system: OVCAR-5 ovarian
[7] = system: OVCAR-8 ovarian
[8] = system: PC-3 prostate
[9] = system: RPMI-8226 leukemia
[10] = system: RXF 393 renal
[11] = system: SF-268 CNS
[12] = system: SF-295 CNS
[13] = system: SF-539 CNS
[14] = system: SK-MEL-2 melanoma
[15] = system: SK-MEL-28 melanoma
[16] = system: SK-MEL-5 melanoma
[17] = system: SK-OV-3 ovarian
[18] = system: SN12C renal
[19] = system: SNB-19 CNS
[20] = system: SNB-75 CNS
[21] = system: SR leukemia
[22] = system: SW-620 colon
[23] = system: T-47D breast
[24] = system: TK-10 renal
[25] = system: U251 CNS
[26] = system: UACC-257 melanoma
[27] = system: UACC-62 melanoma
[28] = system: UO-31 renal

For CCCCCCC/C(=N\N=C(N)N)c1ccc(O)cc1, the GI50 [1] was 1.82 µM, the TGI [1] was 3.68 µM and the GI50 [2] was 1.62 µM. It also gave a TGI [2] of 3.48 µM, a GI50 [3] of 10 µM and a TGI [3] of 23.2 µM. It also gave a GI50 [4] of 2.23 µM, a TGI [4] of 7.84 µM and a GI50 [5] of 1.65 µM. The TGI [5] was 12.3 µM, the GI50 [6] was 3.83 µM and the TGI [6] was 15.3 µM. It also gave a GI50 [7] of 2.12 µM, a TGI [7] of 5.26 µM and a GI50 [8] of 2.17 µM. For the same compound, the TGI [8] was 8.92 µM, the GI50 [9] was 1.71 µM and the TGI [9] was 4.3 µM. The GI50 [10] was 1.94 µM, the TGI [10] was 5.16 µM and the GI50 [11] was 1.77 µM. The TGI [11] was 5.31 µM, the GI50 [12] was 1.77 µM and the TGI [12] was 4.46 µM. The GI50 [13] was 1.91 µM, the TGI [13] was 4.4 µM and the GI50 [14] was 1.96 µM. The TGI [14] was 3.85 µM, the GI50 [15] was 1.73 µM and the TGI [15] was 3.28 µM. For the same compound, the GI50 [16] was 1.5 µM, the TGI [16] was 2.82 µM and the GI50 [17] was 3.04 µM. The TGI [17] was 11.2 µM, the GI50 [18] was 2.76 µM and the TGI [18] was 11.8 µM. For the same compound, the GI50 [19] was 2.13 µM, the TGI [19] was 10.6 µM and the GI50 [20] was 1.58 µM. It also gave a TGI [20] of 5.41 µM, a GI50 [21] of 1.67 µM and a TGI [21] of 3.96 µM. The GI50 [22] was 1.65 µM, the TGI [22] was 3.35 µM and the GI50 [23] was 1.87 µM. For the same compound, the TGI [23] was 4.89 µM, the GI50 [24] was 5.53 µM and the TGI [24] was 18 µM. For the same compound, the GI50 [25] was 1.54 µM, the TGI [25] was 2.87 µM and the GI50 [26] was 1.76 µM. For the same compound, the TGI [26] was 3.81 µM, the GI50 [27] was 1.55 µM and the TGI [27] was 3.26 µM. For the same compound, the GI50 [28] was 2.38 µM and the TGI [28] was 12.1 µM.

Source: PubChem BioAssay (NCI)
